Measurements: US20040127492A1 (Pharmacia Corporation, priority 2002, published 2004)
Read-outs that look alike come from different tables or passages of the source.

Tests used:
[1] = biological target: MAPKAPK2 (MK-2) (Homo sapiens, UniProt P49137); assay: Determination of MK-2 IC50 (HSP-peptide phosphorylation, anion exchange resin capture assay); format: biochemical
Procedure, shortened: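 Radiometric peptide assay: 15 nM p38α-activated MK-2, HSP-peptide, 0.03 mM ATP with [γ33P]ATP, 2% DMSO, pH 7.5, 30° C for 30 min; unreacted ATP removed on AG 1×8 resin before counting. Six concentrations in ten-fold steps, each in triplicate, gave IC50 in μM.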

[2] = biological target: MK-3 (Homo sapiens, UniProt Q16644); assay: MK-3 inhibition IC50 (similar method to MK-2, with appropriate modifications); format: biochemical; details: read-out: MK-3 Avg. IC50
Sequence of MK-3 (Q16644 whole entry, species assumed): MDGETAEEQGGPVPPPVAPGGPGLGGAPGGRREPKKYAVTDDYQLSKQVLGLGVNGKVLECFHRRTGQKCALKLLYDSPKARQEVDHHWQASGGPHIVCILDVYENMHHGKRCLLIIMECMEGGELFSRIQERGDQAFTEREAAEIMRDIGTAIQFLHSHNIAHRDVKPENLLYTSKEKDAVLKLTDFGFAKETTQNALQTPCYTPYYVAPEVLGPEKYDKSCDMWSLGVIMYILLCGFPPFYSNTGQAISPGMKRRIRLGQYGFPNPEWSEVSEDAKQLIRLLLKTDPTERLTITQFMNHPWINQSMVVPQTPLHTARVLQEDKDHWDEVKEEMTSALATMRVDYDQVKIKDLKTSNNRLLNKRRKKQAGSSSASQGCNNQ
Procedure: In practice, the selectivity of a cyclic pyrazole MK-2 inhibitor varies depending upon the condition under which the test is performed and on the inhibitors being tested. However, for the purposes of this specification, the selectivity of a cyclic pyrazole MK-2 inhibitor inhibitor can be measured as a ratio of the in vitro or in vivo IC50 value for inhibition of MK-3, divided by the IC50 value for inhibition of MK-2 (IC50 MK-3/IC50 MK-2). […] The MK-2 or MK-3 inhibiting activity of any of the compounds described herein can be determined by any one of several methods that are well known to those having skill in the art of enzyme activity testing. […] A similar method, with appropriate modifications, Can be used to measure MK-3 inhibitory activity. In addition, the efficacy of one of the present MK-2 inhibiting compounds in therapeutic applications can be determined by testing for inhibition of TNFα production in cell culture and in animal model assays.

[3] = Table 1, phenoxypyrazole MK-2 inhibitors, read-out: MK-2 Avg, IC50
[4] = Table 1, phenoxypyrazole MK-2 inhibitors
[5] = Table 2, pyrazolylpyrazole MK-2 inhibitors, read-out: MK-2 Avg. IC50
[6] = Table 2, pyrazolylpyrazole MK-2 inhibitors

Sequence of MAPKAPK2 (MK-2) (P49137 whole entry, species assumed): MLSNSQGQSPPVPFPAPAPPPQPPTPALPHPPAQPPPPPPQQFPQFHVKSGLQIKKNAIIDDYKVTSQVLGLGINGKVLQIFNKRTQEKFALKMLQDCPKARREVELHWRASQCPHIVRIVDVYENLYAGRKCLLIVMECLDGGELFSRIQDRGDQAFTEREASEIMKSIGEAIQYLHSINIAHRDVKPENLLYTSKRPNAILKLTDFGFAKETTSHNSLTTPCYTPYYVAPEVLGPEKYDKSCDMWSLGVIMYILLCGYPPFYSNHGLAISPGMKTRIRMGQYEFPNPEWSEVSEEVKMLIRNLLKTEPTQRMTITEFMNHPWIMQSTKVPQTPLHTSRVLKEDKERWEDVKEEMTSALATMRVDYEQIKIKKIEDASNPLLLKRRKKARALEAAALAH

| IC50 ([1]; read-out: MK-2 Avg. IC50) [µM] | IC50 [2] [µM] | IC50 [1, 3] [µM] | IC50 [2, 4] [µM] | SMILES | further results |
| --- | --- | --- | --- | --- | --- |
| 1.18 | 30.3 | – | – | O=C(O)c1c2c(nn1CCCNCCC(c1ccccc1)c1ccccc1)-c1ccncc1CC2 [Example 80] | – |
| – | – | > 200 | > 200 | CCOC(=O)c1c2c(nn1C)-c1ccc(O)cc1CC2 [Example 157] | – |
| – | – | 143 | > 200 | COc1cc2c(cc1-c1cccc(S(C)(=O)=O)c1)-c1nn(CCCNC(=O)OC(C)(C)C)c(C(=O)O)c1CC2 [Example 57] | – |
| – | – | 3 | > 200 | O=C1NCCn2nc3c(c21)CCc1cc(O)c(-c2cccc([N+](=O)[O-])c2)cc1-3 [Example 7] | – |
| – | – | – | – | O=C(O)c1c2c(nn1CCO)-c1cn[nH]c1CC2 [Example 37] | IC50 [1, 5]: 139 µM; IC50 [2, 6]: ≥ 200 µM |
| – | – | – | – | C=CCn1nc2c(c1C(=O)OCC)CCc1c-2cnn1C(c1ccccc1)(c1ccccc1)c1ccccc1 [Example 74] | IC50 [1, 5]: ≥ 200 µM; IC50 [2, 6]: ≥ 200 µM |
| 0.13 | 5.85 | – | – | O=C(O)c1c2c(nn1CCCNCCc1ccc(-c3cccc(Cl)c3)cc1)-c1ccncc1CC2 [Example 24] | – |
| 96.8 | 108 | – | – | CN1CCN(c2cc3c(cn2)CCc2c-3nn3c2C(=O)NCC3)CC1 [Example 245] | – |
| – | – | > 200 | > 200 | COc1ccc2c(c1)CCc1c-2n[nH]c1C(=O)NN [Example 180] | – |
| 0.0523 | 5.34 | – | – | O=C1NCCn2nc3c(c21)CCc1cnc(-n2ccnc2)cc1-3 [Example 13] | – |
| – | – | – | – | NCCCn1nc2c(c1C(=O)O)CCc1cnc(/C=C/c3ccccc3)cc1-2 [Example 33] | IC50 ([1]; Table 5, other cyclic pyrazole MK-2 inhibiting compounds, read-out: MK-2 Avg. IC50): 0.0329 µM; IC50 ([2]; Table 5, other cyclic pyrazole MK-2 inhibiting compounds): 0.528 µM |
| – | – | 0.845 | 40.9 | NCCn1nc2c(c1C(=O)O)CCc1cc(O)c(-c3cccc([N+](=O)[O-])c3)cc1-2 [Example 2] | – |
| – | – | – | – | O=C(O)c1nn(CC(F)(F)F)c2c1CCc1[nH]ncc1-2 [Example 42] | IC50 [1, 5]: 180 µM; IC50 [2, 6]: ≥ 200 µM |
| – | – | 165 | > 200 | COc1cc2c(cc1-c1ccncc1)-c1nn(CCCNC(=O)OC(C)(C)C)c(C(=O)O)c1CC2 [Example 67] | – |
| – | – | – | – | C=CCn1nc2c(c1C(N)=O)CCc1[nH]ncc1-2 [Example 43] | IC50 [1, 5]: 181 µM; IC50 [2, 6]: ≥ 200 µM |
| – | – | 29.8 | 60.7 | NCCCn1nc2c(c1C(=O)O)CCc1cc(O)c(-c3ccccc3Cl)cc1-2 [Example 30] | – |

| IC50 ([1]; read-out: MK-2 Avg. IC50) [µM] | IC50 [2] [µM] | IC50 [1, 3] [µM] | IC50 [2, 4] [µM] | SMILES | further results |
| --- | --- | --- | --- | --- | --- |
| – | – | 65.7 | > 200 | COc1cc2c(cc1-c1ccc(C(C)(C)C)cc1)-c1nn(CCCNC(=O)OC(C)(C)C)c(C(=O)O)c1CC2 [Example 42] | – |
| – | – | – | – | CONC(=O)c1[nH]nc2c1CCc1[nH]ncc1-2 [Example 39] | IC50 [1, 5]: 141 µM; IC50 [2, 6]: 180 µM |
| – | – | – | – | N#CCCn1nc(C(N)=O)c2c1-c1cn[nH]c1CC2 [Example 67] | IC50 [1, 5]: ≥ 200 µM; IC50 [2, 6]: ≥ 200 µM |
| 0.632 | 6.87 | – | – | COc1ccccc1-c1cc2c(cn1)CCc1c-2nn(CCCN)c1C(=O)O [Example 66] | – |
| – | – | 150 | > 200 | COCCOCOc1ccc2c(c1)CCc1c-2n[nH]c1C(=O)O [Example 61] | – |
| 0.0567 | 0.209 | – | – | NCCCn1nc2c(c1C(=O)O)CCc1cnc(-c3ccc(C(F)(F)F)cc3)cc1-2 [Example 15] | – |
| 0.483 | 4.92 | – | – | CN(C)c1cccc(-c2cc3c(cn2)CCc2c-3nn3c2C(=O)NCCC3)c1 [Example 53] | – |
| – | – | > 200 | > 200 | COc1cc2c(cc1OC)-c1n[nH]c(C(=O)O)c1CC2 [Example 173] | – |
| – | – | – | – | NCCCn1nc2c(c1C(=O)O)CCc1[nH]ncc1-2 [Example 2] | IC50 [1, 5]: 2.17 µM; IC50 [2, 6]: 35.3 µM |
| 0.023 | 0.0698 | – | – | NCCCn1nc2c(c1C(=O)O)CCc1cnc(-c3ccc4ccccc4c3)cc1-2 [Example 5] | – |
| 0.62 | 22.8 | – | – | NCCCn1nc2c(c1C(=O)O)CCc1cnccc1-2 [Example 64] | – |
| – | – | 11 | 109 | NCCCn1nc2c(c1C(=O)O)CCc1cc(O)c(-c3ccc(Cl)cc3)cc1-2 [Example 15] | – |
| 0.663 | 10 | – | – | NCc1cccc(-c2ccc(CCNCCCn3nc4c(c3C(=O)O)CCc3cnccc3-4)cc2)c1 [Example 67] | – |
| – | – | 44.4 | > 200 | Cn1nc2c(c1C(=O)O)CCc1cc(O)ccc1-2 [Example 34] | – |
| – | – | 3.75 | > 200 | NCCCn1nc2c(c1C(=O)O)CCc1cc(O)c(Br)cc1-2 [Example 8] | – |
| – | – | – | – | C=CCn1nc(C(N)=O)c2c1-c1cn[nH]c1CC2 [Example 26] | IC50 [1, 5]: 95.1 µM; IC50 [2, 6]: 49.3 µM |
